{
  "source": "patent US11844777B2",
  "about": "“Methods of treating autoimmune microvascular disorders” (PRIMUS PHARMACEUTICALS, INC., priority 2017, dated 2023)",
  "key": {"digital ulcers": {"tested_on": "digital ulcers", "assay": "randomized, double blind, placebo controlled clinical trial of diosmin on digital ulcers", "assay_type": "in vivo, human", "procedure": "To evaluate the effect of diosmin on Raynaud's and digital ulcers, a randomized, double blind, placebo controlled clinical trial was conducted. In this trial, subjects were randomized to receive either 600 mg of diosmin or matching placebo twice daily. The trial recorded improvement/healing of ulcers. Subjects with ulcers who were not on active ulcer therapy were required to have at least one stable or worsening digital ulcer for at least one month and subjects receiving ulcer therapy were required to have at least one stable or worsening ulcer on stable therapy for at least two months and therapy was required to remain constant for the duration of the trial."}, "[1]": {"tested_on": "streptozotocin-induced diabetic hamster cheek pouch", "settings": "cited from earlier work"}, "[2]": {"tested_on": "leukocyte and endothelial cell adhesion molecules", "settings": "variety of ischemia/reperfusion models; cited from earlier work"}, "hamster cheek pouch": {"tested_on": "hamster cheek pouch", "settings": "pretreatment with 2, 20, 80 and 160 mg/kg/d; ischemia/reperfusion; cited from earlier work"}, "rabbit ear veins": {"tested_on": "rabbit ear veins", "settings": "300 mg/kg/d from 7 days before to 4 days after sclerotherapy; p<0.001; cited from earlier work"}, "[3]": {"settings": "cited from earlier work"}},
  "data": [
    {"compound": "COc1ccc(-c2cc(=O)c3c(O)cc(O[C@@H]4O[C@H](CO[C@@H]5O[C@@H](C)[C@H](O)[C@@H](O)[C@H]5O)[C@@H](O)[C@H](O)[C@H]4O)cc3o2)cc1O", "note": "[diosmin, (7-[[6-O-(6-Deoxy-α-L-mannopyranosyl)-β-D-glucopyranosyl]oxy]-5-hydroxy-2-(3-hydroxy-4-methoxyphenyl)-4H-1-benzopyran-4-one)]", "values": [
      {"measurement": "Number of New Ulcers Appearing between Baseline and Week 4", "setting": "digital ulcers; 600 mg diosmin twice daily, Week 4, all digital ulcers (including 9 ulcers in 4 non-scleroderma subjects)", "result": 14},
      {"measurement": "Number of Ulcers Healed at Week 4 Relative to Baseline", "setting": "digital ulcers; 600 mg twice daily, Week 4, healed/total ulcers, p 0.1251 vs placebo", "result": "18/43"},
      {"measurement": "Number with >= 50% Improvement at Week 4 Relative to Baseline", "setting": "digital ulcers; 600 mg twice daily, Week 4, improved/total ulcers, p 0.0905 vs placebo", "result": "23/43"},
      {"measurement": "% with >= 50% Improvement at Week 4 Relative to Baseline", "setting": "digital ulcers; 600 mg twice daily, Week 4, p 0.0905 vs placebo", "result": "(53.5%)"},
      {"measurement": "% of Ulcers Healed at Week 4 Relative to Baseline", "setting": "digital ulcers; 600 mg twice daily, Week 4, p 0.1251 vs placebo", "result": "(41.9%)"},
      {"measurement": "Number of Ulcers Healed at Week 8 Relative to Baseline", "setting": "digital ulcers; 600 mg twice daily, Week 8, healed/total ulcers, p 0.0113 vs placebo", "result": "31/42"},
      {"measurement": "Number of Ulcers Healed at Week 8 Relative to Week 4", "setting": "digital ulcers; 600 mg twice daily, Week 8, healed/total ulcers, p 0.0600 vs placebo", "result": "18/37"},
      {"measurement": "Number with >= 50% Improvement at Week 8 Relative to Baseline", "setting": "digital ulcers; 600 mg twice daily, Week 8, improved/total ulcers, p 0.0018 vs placebo", "result": "39/42"},
      {"measurement": "Number with >= 50% Improvement at Week 8 Relative to Week 4", "setting": "digital ulcers; 600 mg twice daily, Week 8, improved/total ulcers, p 0.0207 vs placebo", "result": "25/37"},
      {"measurement": "% with >= 50% Improvement at Week 8 Relative to Baseline", "setting": "digital ulcers; 600 mg twice daily, Week 8, p 0.0018 vs placebo", "result": "(92.9%)"},
      {"measurement": "% of Ulcers Healed at Week 8 Relative to Baseline", "setting": "digital ulcers; 600 mg twice daily, Week 8, p 0.0113 vs placebo", "result": "(73.8%)"},
      {"measurement": "% with >= 50% Improvement at Week 8 Relative to Week 4", "setting": "digital ulcers; 600 mg twice daily, Week 8, p 0.0207 vs placebo", "result": "(67.6%)"},
      {"measurement": "% of Ulcers Healed at Week 8 Relative to Week 4", "setting": "digital ulcers; 600 mg twice daily, Week 8, p 0.0600 vs placebo", "result": "(48.6%)"},
      {"measurement": "number of leukocytes adhering to the endothelium after reperfusion", "setting": "[1]; after reperfusion following 30 minutes of ischemia", "result": "deceased as did the number of leukocytes adhering to the endothelium"},
      {"measurement": "number of capillary leaks induced by each of the test articles, bradykinin, and LTB4", "setting": "[1]; pretreatment with diosmin, diabetic hamster cheek pouch", "result": "significantly reduced"},
      {"measurement": "overexpression of leukocyte and endothelial cell adhesion molecules", "setting": "[2]", "result": "inhibit"},
      {"measurement": "arteriolar vasodilation, reduction in flow velocity and decrease in functional capillary density", "setting": "hamster cheek pouch", "result": "reversed all these changes towards normal in a dose dependent manner"},
      {"measurement": "functional capillary density", "setting": "rabbit ear veins", "result": "preserved"},
      {"measurement": "increase in venous and arteriolar diameter", "setting": "rabbit ear veins", "result": "prevented"},
      {"measurement": "number of adherent leukocytes", "setting": "rabbit ear veins", "result": "reduced"},
      {"measurement": "number of capillary leakage sites", "setting": "rabbit ear veins", "result": "reduced"},
      {"measurement": "perivenous edema", "setting": "rabbit ear veins", "result": "reduced"},
      {"measurement": "form found in blood after oral ingestion", "setting": "[3]", "result": "Diosmetin"}
    ]}
  ]
}
